Measured values published in patent US7964631B2, “Fused tricyclic compounds as inhibitors of tumor necrosis factor-α” (Piramal Life Sciences Limited, priority 2004, dated 2011).

Columns and labels:
TNF-α [1] = assay: Whole blood cell culture assay: LPS-induced TNF-α release (primary screening); assay type: cell-based, human; details: Homo sapiens, Whole blood cell; test compound 1 μM; diluted whole blood of healthy donors; LPS 1 μg/ml, 4.5 h; vs DMSO control
Procedure: TNF-α production by lipopolysaccharide (LPS) in whole blood was measured according to the method described by Wilson et al (J. Immunol. Methods, 139: 233-240, 1991). Briefly, blood was collected from healthy donors into potassium EDTA vacutainer tubes (Vacutest Plast/Becton Dickinson) and diluted with RPMI 1640 culture medium (Gibco BRL, Pasley, UK) containing 100 U/ml penicillin and 100 μg/ml streptomycin, (100× solution, Sigma Chemical Co. St Louis, Mo.) with no added serum. The white blood cell count was adjusted to 1×10^6 cells/ml and 100 μl/well of the diluted blood was transferred into 96-well culture plates. Following cell plating, 79 μl of culture medium and 1 μl of the test compounds (final concentration 1 μM) dissolved in DMSO (dimethylsulfoxide, Sigma, Mo., USA) was added to the cells. The final concentration of DMSO was adjusted to 0.5%. 1 μl of vehicle (0.5% DMSO) was used as control. Rolipram (100 μM) was used as a standard compound. The plates were incubated for 30 min at 37° C. in an atmosphere of 5% CO2. Finally, 20 μl (10 μg/ml) per well of LPS (Escherchia coli 0127:B8, Sigma Chemical Co., St. Louis, Mo.) was added, for a final concentration of 1 μg/ml. Plates were incubated at 37° C. for 4.5 h in an atmosphere of 5% CO2. Supernatants were harvested and assayed for TNF-α by ELISA as described by the manufacturer (R&D Systems, MN) or by cytotoxicity bioassay in L929 cells. Percent inhibition of TNF-α release in comparison to the control was calculated.

[2] = system: peripheral blood mononuclear cells (PBMC); assay: Cytotoxicity of test compounds in PBMC, cell viability by MTS reagent; assay type: cell-based, human
Procedure: (§1) TNF-α production by LPS in peripheral blood mononuclear cells (PBMC) was measured according to the method described by Henry et al (J. Bioorg. Med. Chem. Lett., 8: 3335-3340, 1998). Briefly, blood was collected from healthy donors into Potassium EDTA vacutainer tubes (Vacutest Plast/Becton Dickinson). PBMC were isolated using gradient centrifugation in Ficoll-Paque solution (Pharmacia). Isolated PBMC were suspended in RPMI 1640 culture medium (Gibco BRL, Pasley, UK) containing 10% fetal bovine serum (FBS) (Hyclone, Utah, USA), 100 U/ml penicillin (Sigma Chemical Co. St Louis, Mo.) and 100 μg/ml streptomycin (Sigma Chemical Co. St Louis, Mo.). The cell concentration was adjusted to 1×10^6 cells/ml. The viability as determined by trypan blue dye exclusion was uniformly ≧98%. The cell suspension (100 μl) was added to the wells of a 96-well culture plate. Following cell plating, 79 μl of the culture medium and 1 μl of eight different concentrations of the test compounds (final concentration 0.03, 0.1, 0.3, 1, 3, 10, 30, 100 μM) dissolved in DMSO (dimethylsulfoxide, Sigma, Mo., USA) were added to the cells. The final concentration of DMSO was adjusted to 0.5%. The appropriate DMSO concentration was used as control. Rolipram (30 μM) was used as a standard compound. The plates were incubated for 30 min at 37° C. in an atmosphere of 5% CO2. Finally, 20 μl (10 μg/ml) per well of LPS, (Escherchia coli 0127:B8, Sigma Chemical Co., St. Louis, Mo.) was added, for a final concentration of 1 μg/ml. The plates were incubated at 37° C. for 4.5 h in an atmosphere of 5% CO2. To determine the cytotoxicity of the test compounds, the cell viability was assessed using MTS (3-(4,5-dimethylthiazol-2-yl)-5-(3-carboxymethoxyphenyl)-2-(4-sulfonyl)-2H-tetrazolium) reagent (Promega) after 4.5 h of incubation. Supernatants were harvested and assayed for TNF-α by ELISA as described by the manufacturer (R&D Systems, MN, BD Biosciences Pharmingen) or by cytotoxicity bioassay in L929 cells. The 50% inhibitory concentration (IC50) values were calculated by a nonlinear regression method using GraphPad software (Prism 3.03)

TNF-α [3] = assay: LPS-induced TNF-α release in BALB/c mice; assay type: in vivo; details: Mus musculus, 100 mg/kg po, LPS 1 mg/kg i.p. 1 h after dosing, plasma TNF-α 1.5 h after LPS, read-out: % inhibition (Mean ± SE*)
Procedure: The protocol described by Fukuda T. et al (Eur. J. Pharmacol., 391: 317-320, 2000) was followed. BALB/c mice were divided into groups of five to ten each. The test compound, suspended in Tween 80-0.5% carboxy methylcellulose (CMC), with a few drops of Tween 80 as wetting agent if necessary, was administered orally (p.o.) to the mice. One hour later, LPS dissolved in sterile, pyrogen-free saline was administered i.p. at the dose of 1 mg/kg. The negative control group received saline as an i.p injection, while all other groups received LPS. Rolipram (30 mg/kg) was used as the standard drug. One and a half hours later, blood was collected in heparin. Plasma was separated by centrifugation at 13000 rpm (Heraeus Biofuge Pico Centrifuge) at room temperature, aliquoted and stored at −70° C. until analysis.
TNF-α levels in the blood samples were assayed using ELISA and % inhibition of TNF-α release compared to the control group was calculated.

TNF-α [4] = assay: LPS-induced TNF-α production in peripheral blood mononuclear cells (secondary screening); assay type: cell-based; details: 4.5 h, TNF-α production in PBMC, LPS 1 μg/ml, ELISA or L929 bioassay
Procedure: as §1

melting point | IC50 (TNF-α [4]) | Structure (SMILES) | inhibition at 1 µM (TNF-α [1]) | % toxicity (10 μM), 5 h [2] | inhibition in vivo at 100 mg/kg (TNF-α [3])
270 °C (dec.) | 0.51 µM | COC(=O)c1cc(C)c2c(c1)S(=O)(=O)Cc1cc(N3CCCNCC3)cc(Cl)c1O2.Cl [Example 29, 4-Chloro-2-[1,4]diazepan-1yl-6-methyl-10,10-dioxo-10,11-dihydro-5-oxa-10lambda*6*-thia-dibenzo[a,d]cycloheptene-8-carboxylic acid methyl ester hydrochloride] | 76% | 23% | 79.1 ± 0.91%
170 to 173 °C | 8.05 ± 1.57 µM | COC(=O)c1cc(C)c2c(c1)S(=O)(=O)Cc1cc(N3CCN(C(=O)OCc4ccccc4)CC3)cc(Cl)c1O2 [Example 26, 4-(4-Chloro-8-methoxycarbonyl-6-methyl-10,10-dioxo-10,11-dihydro-5-oxa-10lambda*6*-thia-dibenzo[a,d]cyclohepten-2-yl)-piperazine-1-carboxylic acid benzyl ester] | 85% | 00% | 68.7 ± 3.68%
